# Target: T1, 10-formyltetrahydrofolate dehydrogenase (FDH) (Rattus norvegicus, UniProt P28037)
# T1 sequence (P28037 1-902): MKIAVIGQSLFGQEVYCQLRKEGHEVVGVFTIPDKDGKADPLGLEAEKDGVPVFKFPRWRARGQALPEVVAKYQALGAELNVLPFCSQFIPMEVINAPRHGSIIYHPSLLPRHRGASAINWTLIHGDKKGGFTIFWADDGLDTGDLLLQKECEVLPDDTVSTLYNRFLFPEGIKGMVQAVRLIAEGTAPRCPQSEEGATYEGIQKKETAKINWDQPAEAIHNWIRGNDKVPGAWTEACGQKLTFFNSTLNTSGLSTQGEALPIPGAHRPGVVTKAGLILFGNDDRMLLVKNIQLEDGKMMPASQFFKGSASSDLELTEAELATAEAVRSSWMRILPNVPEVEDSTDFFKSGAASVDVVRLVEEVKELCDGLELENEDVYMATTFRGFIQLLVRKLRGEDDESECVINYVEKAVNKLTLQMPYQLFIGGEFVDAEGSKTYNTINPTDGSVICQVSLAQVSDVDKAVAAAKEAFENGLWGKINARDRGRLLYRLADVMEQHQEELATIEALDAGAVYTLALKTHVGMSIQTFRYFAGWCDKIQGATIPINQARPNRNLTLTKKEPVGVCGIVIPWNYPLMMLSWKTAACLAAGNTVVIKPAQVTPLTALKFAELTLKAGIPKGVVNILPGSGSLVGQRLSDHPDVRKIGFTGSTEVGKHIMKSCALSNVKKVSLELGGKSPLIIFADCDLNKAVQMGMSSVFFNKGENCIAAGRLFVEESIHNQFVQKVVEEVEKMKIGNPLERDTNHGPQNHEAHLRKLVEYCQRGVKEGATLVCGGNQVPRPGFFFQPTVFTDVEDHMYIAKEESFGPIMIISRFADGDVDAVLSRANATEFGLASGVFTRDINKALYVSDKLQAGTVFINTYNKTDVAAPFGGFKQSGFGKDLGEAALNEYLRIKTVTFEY
# Assay: THF formation at […] nm with NADP+, hydrolytic rate subtracted
# Format: biochemical
compound,measurement,value
CC=O [acetaldehyde],IC50,4 mM

# — article PMC2788200 (Nutrition Research and Practice, 2008)
